Data as given in the supplement of paper PMC10307832.

Key:
Assay in all cases: relative viability (nuclei count vs DMSO), 5 days (fraction); higher = more cells survive
[1] = compound: CC1(COc2ccc3c(c2)ncn3-c2ccc3cccc(N4CCC(N)CC4)c3n2)COC1 [Crenolanib] + CCNC(=O)c1noc(-c2cc(C(C)C)c(O)cc2O)c1-c1ccc(CN2CCOCC2)cc1 [Luminespib] (partner 0.01 µM)
Summary of the method: (§1)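 Lung cancer cell lines were pin-tool dosed in 1536-well plates on the day after seeding, with either a lone drug or a fixed anchor-drug dose plus five library-drug doses (not always all listed) in √10 steps. Nuclei were counted on 4× images after 5 days. Relative viability is the ratio of treated-well to vehicle-well nuclei counts, with each value a median of duplicate plates.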

[2] = compound: CC1(COc2ccc3c(c2)ncn3-c2ccc3cccc(N4CCC(N)CC4)c3n2)COC1 [Crenolanib] + C[C@@H](Oc1cc(-c2cnn(C3CCNCC3)c2)cnc1N)c1c(Cl)ccc(F)c1Cl [Crizotinib] (partner 1 µM)
Summary of the method: as §1

[3] = compound: CC1(COc2ccc3c(c2)ncn3-c2ccc3cccc(N4CCC(N)CC4)c3n2)COC1 [Crenolanib] + Nc1nc2[nH]cc(CCc3ccc(C(=O)N[C@@H](CCC(=O)O)C(=O)O)cc3)c2c(=O)[nH]1 [Pemetrexed] (partner 0.2 µM)
Summary of the method: as §1

[4] = compound: O=C1NC(=O)[C@@H](c2cn3c4c(cccc24)CCC3)[C@@H]1c1c[nH]c2ccccc12 [Tivantinib] + COc1cccc2cc(-c3nc([C@H]4CC[C@H](C(=O)O)CC4)n4ncnc(N)c34)[nH]c12 [OSI-027] (partner 0.5 µM)
Summary of the method: as §1

Cell Line	relative viability ([1]; first compound 0.01 µM)	relative viability ([1]; first compound 0.03162 µM)	relative viability ([1]; first compound 0.1 µM)	relative viability ([1]; first compound 0.3162 µM)	relative viability ([1]; first compound 1 µM)	relative viability ([2]; first compound 0.01 µM)	relative viability ([2]; first compound 0.03162 µM)	relative viability ([2]; first compound 0.1 µM)	relative viability ([2]; first compound 0.3162 µM)	relative viability ([2]; first compound 1 µM)	relative viability ([3]; first compound 0.01 µM)	relative viability ([3]; first compound 0.03162 µM)	relative viability ([3]; first compound 0.1 µM)	relative viability ([3]; first compound 0.3162 µM)	relative viability ([3]; first compound 1 µM)	relative viability ([4]; first compound 0.01 µM)	relative viability ([4]; first compound 0.03162 µM)	relative viability ([4]; first compound 0.1 µM)	relative viability ([4]; first compound 0.3162 µM)
201T	1.03	1.13	1.01	1.09	1.02	1.04	1.02	1.01	1.04	0.976	0.324	0.323	0.34	0.322	0.338	0.962	0.718	0.665	0.74
A549						0.853	0.76	0.769	0.99	0.717									
A-427	0.84	0.828	0.916	1.01	0.816	0.854	0.946	0.804	0.87	1.02	1.01		0.99	0.989	0.834	0.556	0.413	0.487	0.456
ABC-1		0.655	0.666	0.47	0.611	1.01	0.883	1.13	1.01	1.19						0.586	0.422	0.538	0.603
BEN	0.644	0.257	0.425	0.528	0.32	0.89	0.839	0.863	0.763	0.847	0.784	0.637	0.677	0.752	0.774	0.323	0.269	0.278	0.339
CAL-12T	0.338	0.398	0.272	0.363	0.579	0.66	0.709	0.704	0.816	0.787	1.28	1.27	1.22	1.34	1.31	0.791	0.541	0.634	0.256
COR-L23	0.709	0.679	0.63	0.848	0.574	0.678	0.722	0.577	0.718	0.667	0.185	0.189	0.201	0.199	0.202	0.783	0.7	0.787	0.919
COR-L 105	1.12	0.973	0.743	0.859	0.732	0.845	0.604	0.731	0.838	0.73	1.25	1.09	1.09	1.14	1.1	0.838	0.378	0.581	0.363
Calu-6						0.812	0.814	0.787	0.854	0.835									
ChaGo-K-1	0.595	0.612	0.655	0.655	0.68	1.16	1.17	1.17	1.06	1.09	0.26	0.256	0.255	0.253	0.27	0.662	0.482	0.607	0.549
EBC-1						0.18	0.198	0.188	0.134	0.197									
EKVX	0.915	0.952	0.909	1.03	0.93	1.06	0.756	0.899	1.06	1	0.413	0.423	0.401	0.379	0.387	0.711	0.663	0.679	
EMC-BAC-2	1.31	1.17	1.17	1.45	1.18	0.757	0.774	0.795	0.791	0.775	0.437		0.456	0.449	0.436	0.366	0.3	0.347	0.357
EPLC-272H	0.371	0.574	0.366	0.168	0.319		0.855	0.877	0.918	1.01	0.322	0.342	0.346	0.336	0.353	0.319	0.32	0.293	0.147
H3255	0.963	1.06	0.986	0.917	0.854	1.07	0.806	0.889	0.85	0.825	0.597	0.563	0.544	0.553	0.589	0.711	0.551	0.571	
HARA	0.643	0.734	0.626	0.875	0.828	1.24	1	0.938	0.924	1	0.3	0.231	0.224	0.225	0.236	0.583	0.359	0.509	0.26
HCC-15	0.276	0.408	0.355	0.315	0.302	0.944	0.815	0.847	0.8	0.727	0.23	0.215	0.227	0.228	0.213	0.76	0.53	0.614	0.7
HCC-44	1.26	0.98	1.05	0.771	0.784	0.823	0.84	0.739	0.881	0.848	0.639	0.662	0.707	0.632	0.642	0.488	0.534	0.441	0.669

Cell Line	relative viability ([1]; first compound 0.01 µM)	relative viability ([1]; first compound 0.03162 µM)	relative viability ([1]; first compound 0.1 µM)	relative viability ([1]; first compound 0.3162 µM)	relative viability ([1]; first compound 1 µM)	relative viability ([2]; first compound 0.01 µM)	relative viability ([2]; first compound 0.03162 µM)	relative viability ([2]; first compound 0.1 µM)	relative viability ([2]; first compound 0.3162 µM)	relative viability ([2]; first compound 1 µM)	relative viability ([3]; first compound 0.01 µM)	relative viability ([3]; first compound 0.03162 µM)	relative viability ([3]; first compound 0.1 µM)	relative viability ([3]; first compound 0.3162 µM)	relative viability ([3]; first compound 1 µM)	relative viability ([4]; first compound 0.01 µM)	relative viability ([4]; first compound 0.03162 µM)	relative viability ([4]; first compound 0.1 µM)	relative viability ([4]; first compound 0.3162 µM)
HCC-78						0.371	0.367	0.393	0.34	0.31	0.864	1.01	0.909	0.956	0.865	0.36	0.37	0.367	0.32
HCC-366						0.487	0.466	0.481	1.04	0.462	0.179	0.161	0.171	0.181	0.157	0.941	0.807	0.848	0.934
HCC-827	0.7	0.607	0.617	0.568	0.6	0.938	0.885	0.932	0.964	0.884	0.256	0.277	0.195	0.26	0.268	0.764	0.844	0.708	0.253
HOP-62	0.944	0.89	0.859	0.93	0.813	0.87	1.03	0.984	0.821	1.02	0.322	0.345	0.373	0.362	0.417	0.831	0.566	0.876	0.887
IA-LM						0.925	0.9	0.631	1.29	1.26									
LC-2-ad	1.07	0.929	0.955	0.963	0.756	0.439	0.444	0.56	0.44	0.486	0.265	0.287	0.277	0.291	0.261	0.851	0.738	0.816	0.573
LCLC-97TM1	0.777	0.749	0.792	0.844	0.753	0.42	0.355	0.479	0.324	0.457	0.192	0.188	0.182	0.197	0.184	0.44	0.473	0.428	0.36
LCLC-103H	1.02	0.922	0.878	1.06	0.863	1.12	1.03	1.06	1	1.01	0.453	0.45	0.476	0.503	0.48	0.471	0.425	0.41	0.414
NCI-H522	1.01	0.993	1.15	1.17	1.21						0.976	1.19	1.06	1.06	0.738	0.749	0.648	0.624	0.617
NCI-H727	0.353	0.376	0.264	0.428	0.376	0.858	0.956	0.806	0.973	0.824						0.781	0.484	0.515	0.468
NCI-H1299						0.998	0.914	0.924	0.952	0.891									
NCI-H1395	0.686	0.803	0.698	0.763	0.58						0.88	0.768	0.924	0.831	0.864	0.678	0.662	0.651	0.599
NCI-H1648											0.742		0.821	0.699	0.716	0.254	0.259	0.238	
NCI-H1703						0.67	0.712	0.147	0.219	0.125									
NCI-H1793	0.197	0.249	0.165	0.16	0.186						1.02	0.912	0.835	1.08	0.993	0.257	0.355	0.258	0.154
NCI-H2342	0.822	0.701	0.779	0.77	0.807						0.749	0.72	0.691	0.771	0.754	0.63	0.597	0.585	0.532
SW 900	0.167	0.177	0.172	0.218	0.196						0.502		0.48	0.509	0.484	0.605	0.443	0.583	0.533
